What was measured:
Format in all cases: physicochemical
[1] = Pyrolysis temperature (Td 5%) analysis by TGA; details: 25° C. to 800° C., 10° C./min, nitrogen 60 cm^3/min
Protocol: The Td 5% is a value obtained through Thermogravimetric Analysis (TGA). It is a value (Td 5%) at the weight loss of 95% confirmed in a temperature range of 25° C. to 800° C., with a heating rate of 10° C./min and under nitrogen (N2) atmosphere condition of 60 cm^3/min.
Thermogravimetric analysis (TGA) was performed by using TGA N-1000 equipment manufactured by Scinco Co. The analysis was performed by using about 3 mg of the sample (optical absorbent) and the analysis was conducted at a temperature range of 25° C. to 800° C., with a temperature increase rate of 10° C./min, and under 60 cm^3/min of a nitrogen (N2) atmosphere. As for the Td pyrolysis temperature, the value(Td 5%) at 95% weight loss was used.

[2] = Measuring absorption maximum of the optical absorbent in chloroform; details: about 10^−5 M
Protocol: 1. Measuring Absorption Maximum
The absorption maximum was evaluated by a conventional method. Specifically, the sample was dissolved in a chloroform solvent at a concentration of about 10^−5 M and then evaluated by using a measuring instrument (Agilent, Varian Cary 4000).

[3] = Test Example 2: absorption maximum of optical absorption film before and after high temperature and high humidity evaluation; details: for ΔA: 100×(Af−Ai)/Ai; for Δλ: 100×(λf−λi)/λi; for Ai (transmittance at the absorption maximum wavelength) / λi (absorption maximum wavelength): optical absorption film before being maintained at 85° C.; for Af (transmittance at the absorption maximum wavelength) / λf (absorption maximum wavelength): optical absorption film maintained at 85° C.
Protocol: (§1) A coating solution was prepared by mixing a silicone resin (Dow Chemical, RSN-0217) as a resin component, an optical absorbent, and a solvent (Cyclohexanone). The mixing ratio of the resin component, the optical absorbent and the solvent was 69.3:0.99:29.7 in weight ratio (Resin:Optical Absorbent:Solvent).
(§2) The coating solution was coated on a transparent substrate (a glass substrate manufactured by SCHOTT Co.) and maintained at 140° C. for about 2 hours to form an optical absorption film having a thickness of about 6 μm. The optical absorbent of Embodiment 1, Embodiment 2 or Comparative Example 1 was used as the optical absorbent.
For the optical absorption film prepared in Test Example 1, the absorbance spectrum of the optical absorption film prepared by using the optical absorbent of Embodiment 1 is shown in FIG. 7, the absorbance spectrum of the optical absorption film prepared by using the optical absorbent of Embodiment 2 is shown in FIG. 8, and the absorbance spectrum of the optical absorption film prepared by using the optical absorbent of Comparative Example 1 is shown in FIG. 9. In FIGS. 7 to 9, A-1, A-2, and A-3 indicate evaluations of the optical absorption films of Embodiments 1 and 2 and Comparative Example 1, respectively. […] The high-temperature and high-humidity evaluation is an evaluation where the optical absorption film is maintained at a temperature of 85° C. and under a relative humidity of 85% for 120 hours.
In Table 3, Af is the transmittance at the absorption maximum wavelength of the optical absorption film maintained at 85° C. temperature and under 85% relative humidity for 120 hours, λf is the absorption maximum wavelength at this time, and Ai is the transmittance at the absorption maximum wavelength of the optical absorption film before being maintained at 85° C. temperature and under 85% relative humidity for 120 hours. λi is the absorption maximum wavelength at this time.
In Table 3, ΔA is a value calculated as 100×(Af−Ai)/Ai and Δλ is a value calculated as 100×(λf−λi)/λi.

[4] = Measuring solubility of the optical absorbent in methylene chloride; details: room temperature (about 25° C.)
Protocol: 3. Measuring Solubility The solubility of the optical absorbent was evaluated. Solubility was determined according to the following criteria by evaluating the solubility of the optical absorbent in the solvent (MC, Methylene Chloride) at room temperature (about 25° C.). <Solubility Criteria> • A: When the solubility is 1% by mass or more. • B: When the solubility is 0.5% by mass or more and less than 1% by mass. • C: When the solubility is 0.2% by mass or more and less than 0.5% by mass. • D: When the solubility is less than 0.2% by mass. 4. Pyrolysis Temperature (Td 5%) Analysis

[5] = Test Example 1: transmittance of optical absorption film before and after reliability evaluation (85° C., 85% relative humidity, 120 hours); details: for Tave 425~465 nm, Δ / Tave 466~480 nm, Δ / Tave 480~560 nm, Δ / Tmin 425~465 nm, Δ / Tmin 466~480 nm, Δ / Λmax Tmax, Δ: change rate 100×(A−B)/B; for Tmin 425~465 nm, B: silicone resin film about 6 μm; for Tmin 425~465 nm, B / Tmin 425~465 nm, A / Tmin 466~480 nm, A / Tmin 466~480 nm, B: minimum transmittance; for Tmin 425~465 nm, B / Tave 425~465 nm, B / Tave 466~480 nm, B / Tave 480~560 nm, B / Tmin 466~480 nm, B: before reliability evaluation; for Tave 425~465 nm, A / Tave 466~480 nm, A / Tave 480~560 nm, A / Tave 425~465 nm, B / Tave 466~480 nm, B / Tave 480~560 nm, B / Tmin 425~465 nm, A / Tmin 466~480 nm, A / Tmin 466~480 nm, B: silicone resin film; for Tave 425~465 nm, A / Tave 466~480 nm, A / Tave 480~560 nm, A / Tave 425~465 nm, B / Tave 466~480 nm, B / Tave 480~560 nm, B: average transmittance; for Tave 425~465 nm, A / Tave 466~480 nm, A / Tave 480~560 nm, A / Tmin 425~465 nm, A / Tmin 466~480 nm, A: after 85° C., 85% relative humidity, 120 hours
Protocol: 2. Evaluation of Transmittance Spectrum
The transmittance spectrum was measured by using a spectrophotometer (Manufacturer: Perkinelmer Co., Product Name: Lambda 750 Spectrophotometer) for a specimen obtained by cutting the measurement subject (e.g., an optical absorption film) to 10 mm and 10 mm in width and length, respectively. The transmittance spectrum was measured for each wavelength and incident angle according to the manual of the equipment. The specimen was placed on a straight line between the measuring beam and the detector of the spectrophotometer, and the transmittance spectrum was checked while changing the incident angle of the measuring beam from 0° to 40°. Unless specifically stated otherwise, the result of the transmittance spectrum in this embodiment was the result when the incident angle is 0°. The incident angle of 0° is a direction substantially parallel to the direction normal to the surface of the specimen.
The average transmittance within a predetermined wavelength region in the transmittance spectrum was the result of measuring the transmittance of each wavelength while increasing the wavelength by 1 nm from the shortest wavelength in the wavelength region, and then calculating the arithmetic average of the measured transmittance. The maximum transmittance is the maximum one among the transmittance measured while increasing the wavelength by 1 nm. For example, the average transmittance within the wavelength range of 350 nm to 360 nm is the arithmetic average of transmittances measured at wavelengths of 350 nm, 351 nm, 352 nm, 353 nm, 354 nm, 355 nm, 356 nm, 357 nm, 358 nm, 359 nm and 360 nm and the maximum transmittance within the wavelength range of 350 nm to 360 nm is the highest transmittance among transmittances measured at wavelengths of 350 nm, 351 nm, 352 nm, 353 nm, 354 nm, 355 nm, 356 nm, 357 nm, 358 nm, 359 nm and 360 nm.
as §1, §2
Table 2 below summarizes the transmittance of the optical absorption film before and after reliability evaluation in the ultraviolet and the near infrared regions. The reliability evaluation is an evaluation of the optical absorption film maintained at 85° C. and 85% relative humidity for 120 hours. In Table 2, B means the result before performing the reliability evaluation, and A means the result after performing the reliability evaluation. In addition, in Table 2, Λmax means the transmittance at the absorption maximum.
In Table 2, Δ is the change rate (%) of each characteristic before and after the reliability evaluation and it is a result calculated as 100×(A−B)/B, where A is a numerical value indicated under column A in Table 2, and B is a numerical value indicated under column B in Table 2. In Table 2, Tmax denotes the highest transmittance within a corresponding wavelength range, Tave denotes an average transmittance within a corresponding wavelength range, and Tmin denotes a minimum transmittance within a corresponding wavelength range.

[6] = 85% relative humidity, 120 hours

Structure (SMILES) | Td 5% (5% pyrolysis temperature) [1] | Absorption Maximum Wavelength [2] | ΔA [3] | Δλ [3] | Ai (transmittance at the absorption maximum wavelength) [3, 6] | λi (absorption maximum wavelength) [3, 6] | Af (transmittance at the absorption maximum wavelength) [3, 6] | λf (absorption maximum wavelength) [3, 6] | Solubility [4] | Tave 425~465 nm, Δ [5] | Tave 466~480 nm, Δ [5] | Tave 480~560 nm, Δ [5] | Tmin 425~465 nm, Δ [5] | Tmin 466~480 nm, Δ [5] | Λmax Tmax, Δ [5] | Tmin 425~465 nm, B [5] | Tave 425~465 nm, A [5] | Tave 466~480 nm, A [5] | Tave 480~560 nm, A [5] | Tave 425~465 nm, B [5] | further results
CC1N(CCC[Si](C)(C)C)c2c(cc(C3=C([O-])/C(=c4/cc5c(c6ccccc46)=[N+](CCC[Si](C)(C)C)C(C)C5(C)C)C3=O)c3ccccc23)C1(C)C (stereo not shown) [Embodiment 2] | 260 °C | 772 nm | 6.8% | 0% | 8.91% | 765 nm | 9.52% | 765 nm | A (When the solubility is 1% by mass or more) | −0.2% | 0% | −0.1% | −0.3% | 0.1% | 7% | 88.75 | 89.72 | 88.64 | 90.86 | 89.87 | Absorption Maximum Wavelength ([2]; listed as A2): about 772 nm; Tave 466~480 nm, B [5]: 88.61; Tave 480~560 nm, B [5]: 90.93; Tmin 425~465 nm, A [5]: 88.52; Tmin 466~480 nm, A [5]: 87.95; Tmin 466~480 nm, B [5]: 87.88
CC1N(CCC[Si](C)(C)C)c2ccc(C3=C([O-])/C(=c4\ccc5c(c4)C(C)(C)C(C)[N+]=5CCC[Si](C)(C)C)C3=O)cc2C1(C)C (stereo not shown) [Embodiment 1] | 247 °C | 652 nm | 8.2% | 0% | 6.12% | 658 nm | 6.62% | 658 nm | A (When the solubility is 1% by mass or more) | −0.3% | −0.1% | −0.1% | −0.2% | 0% | 8.2% | 89.64 | 90.26 | 89.58 | 91.06 | 90.49 | Absorption Maximum Wavelength ([2]; listed as A1): about 652 nm; Tave 466~480 nm, B [5]: 89.64; Tave 480~560 nm, B [5]: 91.17; Tmin 425~465 nm, A [5]: 89.42; Tmin 466~480 nm, A [5]: 89.10; Tmin 466~480 nm, B [5]: 89.06
C/C(C1=Nc2ccc([Si](C)(C)C)cc2C1(C)C)=C1/C(=O)C(C(/C)=C2/Nc3ccc([Si](C)(C)C)cc3C2(C)C)=C1O [Comparative Example 1, reference compound] | 187 °C | 738 nm | 36.7% | 24.4% | 66.3% | 731 nm | 90.6% | 909 nm | A (When the solubility is 1% by mass or more) | 0% | −0.1% | −0.1% | 0.3% | −0.1% | 34.7% | 91.35 | 92.03 | 92.07 | 92.27 | 91.99 | Absorption Maximum Wavelength ([2]; listed as A3): about 738 nm; light absorption characteristics before and after high temperature and high humidity ([3]; optical absorption film, 85° C., 85% relative humidity, 120 hours, FIGS. 7 to 9): almost lost; Tave 466~480 nm, B [5]: 92.14; Tave 480~560 nm, B [5]: 92.32; Tmin 425~465 nm, A [5]: 91.62; Tmin 466~480 nm, A [5]: 91.76; Tmin 466~480 nm, B [5]: 91.84

Source: patent publication US12566283B2, “Optical absorbent” (LMS CO., LTD., priority 2022, dated 2026)
